US5405859A (priority 1993, dated 1995)
In brackets after ≈: the same amount, converted by molar mass. Where two headings read alike, the source gives them in different places.

Columns and labels:
[1] = test system: H520 cells; assay: Cancer cell screen (NCI protocol), H520; conditions: Homo sapiens, NCI-H520, read-out: LOGIC50(W)
[2] = test system: SW620 cells; assay: Cancer cell screen (NCI protocol), SW620; conditions: Homo sapiens, SW-620, read-out: LOGIC50(W)
[3] = test system: H322 cells; assay: Cancer cell screen (NCI protocol), H322; conditions: NCI-H322, read-out: LOGIC50(W)
[4] = test system: MCF-7/A cells; assay: Cancer cell screen (NCI protocol), MCF-7/A; conditions: MCF7a, read-out: LOGIC50(W)
[5] = test system: A2780 cells; assay: Cancer cell screen (NCI protocol), A2780; conditions: Homo sapiens, A2780, read-out: LOGIC50(W)
[6] = test system: H460 cells; assay: Cancer cell screen (NCI protocol), H460; conditions: Homo sapiens, NCI-H460, read-out: LOGIC50(W)
[7] = test system: TE-671 cells; assay: Cancer cell screen (NCI protocol), TE-671; conditions: Homo sapiens, TE-671, read-out: LOGIC50(W)
[8] = test system: SNB-75 cells; assay: Cancer cell screen (NCI protocol), SNB-75; conditions: Homo sapiens, SNB-75, read-out: LOGIC50(W)
[9] = test system: EKV-X cells; assay: Cancer cell screen (NCI protocol), EKV-X; conditions: Homo sapiens, EKVX, read-out: LOGIC50(W)
[10] = test system: SN-12KI cells; assay: Cancer cell screen (NCI protocol), SN-12KI; conditions: read-out: LOGIC50(W)
[11] = test system: P388 cells; assay: Cancer cell screen (NCI protocol), P388; conditions: Mus musculus, P388, read-out: LOGIC50(W)
[12] = test system: A498 cells; assay: Cancer cell screen (NCI protocol), A498; conditions: Homo sapiens, A498, read-out: LOGIC50(W)
[13] = test system: A704 cells; assay: Cancer cell screen (NCI protocol), A704; conditions: Homo sapiens, A704, read-out: LOGIC50(W)
[14] = test system: HL-60 cells; assay: Cancer cell screen (NCI protocol), HL-60; conditions: Homo sapiens, HL-60, read-out: LOGIC50(W)
[15] = Initial screening, relative activities of the patellazoles
[16] = test system: SK-MES1 cells; assay: Cancer cell screen (NCI protocol), SK-MES1; conditions: Homo sapiens, SK-MES-1, read-out: LOGIC50(W)
[17] = test system: OVCAR-4 cells; assay: Cancer cell screen (NCI protocol), OVCAR-4; conditions: Homo sapiens, OVCAR-4, read-out: LOGIC50(W)
[18] = test system: UO-31 cells; assay: Cancer cell screen (NCI protocol), UO-31; conditions: Homo sapiens, UO-31, read-out: LOGIC50(W)
[19] = test system: SNB-19 cells; assay: Cancer cell screen (NCI protocol), SNB-19; conditions: Homo sapiens, SNB-19, read-out: LOGIC50(W)
[20] = test system: standard group of cancer cells; assay: Screen against standard group of cancer cells, whole panel; conditions: for .DELTA / .RANGE: log IC50, cell panel; for IC50: read-out: .AV.LOG IC50; for relative activity: review of Tables IV-VI
[21] = test system: P388/AD cells; assay: Cancer cell screen (NCI protocol), P388/AD; conditions: Mus musculus, P388, read-out: LOGIC50(W)
[22] = test system: HT29 cells; assay: Cancer cell screen (NCI protocol), HT29; conditions: Homo sapiens, HT-29, read-out: LOGIC50(W)
[23] = test system: LOVO cells; assay: Cancer cell screen (NCI protocol), LOVO; conditions: Homo sapiens, read-out: LOGIC50(W)
[24] = test system: OVCAR-8 cells; assay: Cancer cell screen (NCI protocol), OVCAR-8; conditions: Homo sapiens, OVCAR-8, read-out: LOGIC50(W)
[25] = test system: U-251 cells; assay: Cancer cell screen (NCI protocol), U-251; conditions: Homo sapiens, U-251, read-out: LOGIC50(W)
[26] = test system: SK-MEL5 cells; assay: Cancer cell screen (NCI protocol), SK-MEL5; conditions: Homo sapiens, SK-MEL-5, read-out: LOGIC50(W)
[27] = test system: MCF-7 cells; assay: Cancer cell screen (NCI protocol), MCF-7; conditions: Homo sapiens, MCF7, read-out: LOGIC50(W)
[28] = test system: OVCAR-5 cells; assay: Cancer cell screen (NCI protocol), OVCAR-5; conditions: Homo sapiens, OVCAR-5, read-out: LOGIC50(W)
[29] = test system: MOLT-4 cells; assay: Cancer cell screen (NCI protocol), MOLT-4; conditions: Homo sapiens, MOLT-4, read-out: LOGIC50(W)
[30] = test system: A549 cells; assay: Cancer cell screen (NCI protocol), A549; conditions: Homo sapiens, A549, read-out: LOGIC50(W)
[31] = test system: SNB-44 cells; assay: Cancer cell screen (NCI protocol), SNB-44; conditions: SNB44, read-out: LOGIC50(W)
[32] = test system: HSV-1; assay: Antiviral testing, HSV-1; type: cell-based, herpes virus HSV-1; conditions: for HSV-L (antiviral concentration): Vero host cells, kind of endpoint not given; for activity against herpes virus HSV-1: at concentrations not toxic for host cells (Vero)
Excerpt: (§1) Substantially pure compounds of Patellazole B and C were screened for activity. These extracts from a marine tunicate (L. patella) were submitted for antiviral testing.

[33] = test system: LOX cells; assay: Cancer cell screen (NCI protocol), LOX; conditions: read-out: LOGIC50(W)
[34] = test system: HSV-2; assay: Antiviral testing, HSV-2; type: cell-based, herpes virus HSV-2; conditions: for HSV-2 (antiviral concentration): Vero host cells, kind of endpoint not given; for activity against herpes virus HSV-2: at concentrations not toxic for host cells (Vero)
Excerpt: as §1

[35] = test system: VERO; assay: Cytotoxicity in Vero host cells; type: cell-based; conditions: for Cytotoxicity Vero: Vero cells, kind of endpoint not given; for toxicity for the host cells: Vero, at concentrations active against HSV-1 and HSV-2
Excerpt: as §1

[36] = test system: A322 cells; assay: Cancer cell screen (NCI protocol), A322; conditions: read-out: LOGIC50(W)
[37] = Patellazole B versus Patellazole C

Compound	IC50 [4]	IC50 [5]	IC50 [6]	IC50 [7]	IC50 [8]	IC50 [9]	IC50 [10]	IC50 [11]	IC50 [12]	IC50 [13]	relative activities of the patellazoles [15]	IC50 [16]	IC50 [17]	IC50 [19]	.DELTA [20]	.RANGE [20]	IC50 [20]	IC50 [22]	IC50 [23]	IC50 [25]	further results
CCC(C)C(=O)OC1(C)CCC(C)CC(O)C(C)C(=O)C(C)/C=C\CC(C)C(O)C(O)C(OC)/C(C)=C/C=C/C(C)C(C(C)(O)/C=C(/C)Cc2csc(C3(C)OC3C)n2)OC1=O (centres unmarked) [Patellazole A]	0.501 ng/mL (≈ 0.564 nM)	0.0398 ng/mL (≈ 0.0448 nM)	0.0398 ng/mL (≈ 0.0448 nM)	< 0.0316 ng/mL	6.31 ng/mL (≈ 7.1 nM)	0.0794 ng/mL (≈ 0.0894 nM)	< 0.0316 ng/mL	0.1 ng/mL (≈ 0.113 nM)	0.0631 ng/mL (≈ 0.071 nM)	0.1 ng/mL (≈ 0.113 nM)	A>B>C	< 0.0316 ng/mL	0.1 ng/mL (≈ 0.113 nM)	0.0794 ng/mL (≈ 0.0894 nM)	0.5	2.3	0.0977 ng/mL (≈ 0.11 nM)	< 0.0316 ng/mL	0.0794 ng/mL (≈ 0.0894 nM)	< 0.0316 ng/mL	IC50 [1]: 0.794 ng/mL (≈ 0.894 nM); IC50 [2]: 0.1 ng/mL (≈ 0.113 nM); IC50 [3]: 0.126 ng/mL (≈ 0.142 nM); IC50 [14]: 0.126 ng/mL (≈ 0.142 nM); IC50 [18]: 0.126 ng/mL (≈ 0.142 nM); relative activity [20]: slightly more active than Patellazole B; IC50 [21]: 0.126 ng/mL (≈ 0.142 nM); IC50 [24]: 0.1 ng/mL (≈ 0.113 nM); IC50 [26]: 0.158 ng/mL (≈ 0.178 nM); IC50 [27]: 0.126 ng/mL (≈ 0.142 nM); IC50 [28]: 0.0501 ng/mL (≈ 0.0564 nM); IC50 [29]: 0.0794 ng/mL (≈ 0.0894 nM)
COC1/C(C)=C/C=C/C(C)C(C(C)(O)/C=C(/C)Cc2csc(C3(C)OC3C)n2)OC(=O)C(C)(OC(=O)C(C)C(C)O)CCC(C)CC(O)C(C)C(=O)C(C)/C=C\CC(C)C(O)C1O (centres unmarked) [Patellazole B]	< 0.0316 ng/mL	< 0.0316 ng/mL	< 0.0316 ng/mL	< 0.0316 ng/mL	< 0.0316 ng/mL	< 0.0316 ng/mL	< 0.0316 ng/mL	< 0.0316 ng/mL	< 0.0316 ng/mL	< 0.0316 ng/mL	A>B>C	< 0.0316 ng/mL	< 0.0316 ng/mL	< 0.0316 ng/mL	0	0	0.0316 ng/mL (≈ 0.035 nM)	< 0.0316 ng/mL	< 0.0316 ng/mL	< 0.0316 ng/mL	IC50 [30]: < 0.0316 ng/mL; IC50 [31]: < 0.0316 ng/mL; IC50 [2]: < 0.0316 ng/mL; IC50 [3]: < 0.0316 ng/mL; relative antiviral activity against HSV-1 [32, 37]: significantly more potent; HSV-L (antiviral concentration) [32]: 0.0005 µg/mL; activity against herpes virus HSV-1 [32]: showed activity; IC50 [33]: < 0.0316 ng/mL; IC50 [18]: < 0.0316 ng/mL; relative activity [20]: significantly more active than Patellazole C; IC50 [21]: < 0.0316 ng/mL; relative antiviral activity against HSV-2 [34, 37]: significantly more potent; HSV-2 (antiviral concentration) [34]: 0.06 µg/mL; activity against herpes virus HSV-2 [34]: showed activity; Cytotoxicity Vero [35]: 0.75 µg/mL; toxicity for the host cells [35]: not toxic; IC50 [26]: < 0.0316 ng/mL; IC50 [27]: < 0.0316 ng/mL; IC50 [28]: < 0.0316 ng/mL; IC50 [29]: < 0.0316 ng/mL
COC1/C(C)=C/C=C/C(C)C(C(C)(O)/C=C(/C)Cc2csc(C3(C)OC3C)n2)OC(=O)C(C)(OC(=O)C(C)C(C)O)CCC(C)CC(O)C(C)C(=O)C(CO)/C=C\CC(C)C(O)C1O (centres unmarked) [Patellazole C]	> 316 ng/mL	5.01 ng/mL (≈ 5.45 nM)	7.94 ng/mL (≈ 8.63 nM)	7.94 ng/mL (≈ 8.63 nM)	> 31.6 ng/mL	10 ng/mL (≈ 10.9 nM)	10 ng/mL (≈ 10.9 nM)	12.6 ng/mL (≈ 13.7 nM)	10 ng/mL (≈ 10.9 nM)	79.4 ng/mL (≈ 86.3 nM)	generally less active	7.94 ng/mL (≈ 8.63 nM)	7.94 ng/mL (≈ 8.63 nM)	10 ng/mL (≈ 10.9 nM)	1.1	2.5	10.2 ng/mL (≈ 11.1 nM)	1 ng/mL (≈ 1.09 nM)	6.31 ng/mL (≈ 6.86 nM)	7.94 ng/mL (≈ 8.63 nM)	HSV-L (antiviral concentration) [32]: 0.30 µg/mL; activity against herpes virus HSV-1 [32]: showed activity; relative activities of the patellazoles ([15]; listed as C): A>B>C; HSV-2 (antiviral concentration) [34]: 0.80 µg/mL; activity against herpes virus HSV-2 [34]: showed activity; IC50 [24]: 10 ng/mL (≈ 10.9 nM); IC50 [36]: 7.94 ng/mL (≈ 8.63 nM); Cytotoxicity Vero [35]: 4.0 µg/mL; toxicity for the host cells [35]: not toxic; IC50 [26]: 12.6 ng/mL (≈ 13.7 nM); IC50 [28]: 2.51 ng/mL (≈ 2.73 nM); IC50 [29]: 7.94 ng/mL (≈ 8.63 nM)
